Assay results from patent US20230416203A1, “POTENT AND SELECTIVE INHIBITORS OF THE CALCIUM-ACTIVATED POTASSIUM CHANNEL, KCA3.1, FOR USE AS PLATFORM THERAPEUTICS” (priority 2020, published 2023).

Assays:
KCa3.1 channel = KCa3.1 channel (Homo sapiens, UniProt O15554); test: KCa3.1 patch-clamp (QPatch HTX automated and manual); type: cell-based
Procedure: The effect of the compounds on KCa3.1 channel was evaluated by patch-clamp using a QPatch HTX automated electrophysiology platform (Sophion, Denmark) and by manual patch-clamp (HEKA, Germany). For QPatch experiments, the giga-seal and whole-cell requirements for the automated electrophysiology were the following: minimum seal resistance=0.1 GQ; holding potential=−80 mV; holding pressure=−20 mbar; and positioning pressure=−70 mbar. For KCa3.1 experiment, the external solution was Na^+-Ringer's and contained (in mM): 160 NaCl; 10 HEPES; 4.5 KCl; 1 MgCl2; and 2 CaCl2 (pH=7.4, 310 mOsm). […] Following establishment of the whole-cell configuration, cells were held at −80 mV and KCa3.1 currents elicited by a voltage protocol that held at −80 mV for 20 ms, stepped to −120 mV for 20 ms, ramped from −120 to +40 mV over 200 ms, and then stepped back to −120 mV for 20 ms. This pulse protocol was applied every 10 s. Current slopes (in amperes per second) were measured using the Sophion QPatch software and exported to Microsoft Excel and GraphPad Prism 7 for analysis. […] Curve-fitting and IC50 determination were performed using GraphPad Prism software.

KV1.2 = molecular target: T1, KV1.2 (Rattus norvegicus, UniProt P63142); test: Potassium channels patch-clamp (QPatch), KV1.2; type: cell-based
T1 construct: expressed in transfected cells; host or cells: B82
Procedure: (§1) The effects of Group 4 compounds on related potassium channels were evaluated by patch-clamp using a QPatch HTX automated electrophysiology platform (Sophion, Denmark). The giga-seal and whole-cell requirements for the automated electrophysiology were the following: minimum seal resistance=0.1 GO, holding potential=−80 mV, holding pressure=−20 mbar; and positioning pressure=−70 mbar.

KV1.5 = molecular target: T2, KV1.5 (Homo sapiens, UniProt P22460); test: Potassium channels patch-clamp (QPatch), KV1.5; type: cell-based
T2 construct: expressed in transfected cells; host or cells: MEL
Procedure: as §1

KV1.7 = molecular target: T3, KV1.7 (Homo sapiens, UniProt Q96RP8); test: Potassium channels patch-clamp (QPatch), KV1.7; type: cell-based
T3 construct: expressed in transfected cells; host or cells: CHL
Procedure: as §1

KV4.2 = molecular target: T4, KV4.2 (Rattus norvegicus, UniProt Q63881); test: Potassium channels patch-clamp (QPatch), KV4.2; type: cell-based
T4 construct: expressed in transfected cells; host or cells: LTK
T4 sequence (Q63881 1-630): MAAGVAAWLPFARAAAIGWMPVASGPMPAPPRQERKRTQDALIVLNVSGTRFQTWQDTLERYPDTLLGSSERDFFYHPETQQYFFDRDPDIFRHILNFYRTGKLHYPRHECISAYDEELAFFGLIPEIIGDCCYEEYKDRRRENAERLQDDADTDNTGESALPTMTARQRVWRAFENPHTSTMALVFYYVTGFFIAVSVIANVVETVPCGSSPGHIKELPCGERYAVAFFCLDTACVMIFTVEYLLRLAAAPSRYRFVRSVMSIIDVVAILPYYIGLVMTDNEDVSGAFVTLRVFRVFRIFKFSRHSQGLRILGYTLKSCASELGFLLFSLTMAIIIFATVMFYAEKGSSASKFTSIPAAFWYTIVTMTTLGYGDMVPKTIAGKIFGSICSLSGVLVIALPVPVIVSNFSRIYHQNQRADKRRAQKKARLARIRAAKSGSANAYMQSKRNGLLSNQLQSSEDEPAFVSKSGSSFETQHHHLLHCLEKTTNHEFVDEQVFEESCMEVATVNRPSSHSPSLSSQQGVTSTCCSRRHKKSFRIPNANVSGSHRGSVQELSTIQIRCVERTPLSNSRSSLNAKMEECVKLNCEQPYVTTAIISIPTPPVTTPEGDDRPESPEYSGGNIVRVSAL
Procedure: as §1

KV11.1 (hERG) = molecular target: T5, KV11.1 (hERG) (Homo sapiens, UniProt Q12809); test: Potassium channels patch-clamp (QPatch), KV11.1 (hERG); type: cell-based
T5 construct: host or cells: CHO
Procedure: as §1

CYP-3A4 = molecular target: T6, CYP-3A4 (Homo sapiens, UniProt P08684); test: Cytochrome P450 enzymes inhibition assay, CYP-3A4; type: in vitro ADME; conditions: for CYP IC50/KCa3.1 IC50: CYP-3A4
T6 construct: from tissue
Source text: (§2) The metabolite formation for each substrate under the above conditions was estimated using the following formula: Percent inhibition=[1−(test area ratio/control area ratio)]×100.

CYP-2C9 = CYP-2C9 (Homo sapiens, UniProt P11712); test: Cytochrome P450 enzymes inhibition assay, CYP-2C9; type: in vitro ADME; conditions: for CYP IC50/KCa3.1 IC50: CYP-2C9
Source text: as §2

CYP-IA2 = molecular target: T7, CYP-IA2 (Homo sapiens, UniProt P05177); test: Cytochrome P450 enzymes inhibition assay, CYP-IA2; type: in vitro ADME; conditions: for CYP IC50/KCa3.1 IC50: CYP-IA2
T7 construct: from tissue
T7 sequence (P05177 1-516): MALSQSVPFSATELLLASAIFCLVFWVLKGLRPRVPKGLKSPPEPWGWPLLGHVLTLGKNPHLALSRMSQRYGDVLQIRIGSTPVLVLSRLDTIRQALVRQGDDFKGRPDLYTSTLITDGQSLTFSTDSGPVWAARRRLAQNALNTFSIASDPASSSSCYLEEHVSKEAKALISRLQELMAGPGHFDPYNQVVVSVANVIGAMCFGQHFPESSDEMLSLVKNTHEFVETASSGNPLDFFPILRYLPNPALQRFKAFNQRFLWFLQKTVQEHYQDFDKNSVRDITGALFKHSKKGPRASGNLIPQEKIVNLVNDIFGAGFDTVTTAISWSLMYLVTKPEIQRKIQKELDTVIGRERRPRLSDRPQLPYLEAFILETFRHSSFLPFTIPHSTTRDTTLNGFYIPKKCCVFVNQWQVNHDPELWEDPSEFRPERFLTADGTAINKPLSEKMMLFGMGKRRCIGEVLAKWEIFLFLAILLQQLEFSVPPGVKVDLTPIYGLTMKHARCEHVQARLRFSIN
Source text: as §2

CYP-2D6 = molecular target: T8, CYP-2D6 (Homo sapiens, UniProt P10635); test: Cytochrome P450 enzymes inhibition assay, CYP-2D6; type: in vitro ADME; conditions: for CYP IC50/KCa3.1 IC50: CYP-2D6
T8 construct: from tissue
Source text: as §2

CYP-2C19 = CYP-2C19 (Homo sapiens, UniProt P33261); test: Cytochrome P450 enzymes inhibition assay, CYP-2C19; type: in vitro ADME; conditions: for CYP IC50/KCa3.1 IC50: CYP-2C19
Source text: as §2

in vitro = conditions: human, microsomes, pH 7.4
CaV1.2 channel = CaV1.2 channel (Homo sapiens, UniProt Q13936); test: cell-based
[1] = Microsomal stability studies; conditions: for Microsomal Stability (human) % remaining @ 30 mins: human microsomes, 1 μM; for drug/control (% remaining @ 30 mins): ratio to Verapamil control

Chain of CYP-2C9 (P11712 whole entry): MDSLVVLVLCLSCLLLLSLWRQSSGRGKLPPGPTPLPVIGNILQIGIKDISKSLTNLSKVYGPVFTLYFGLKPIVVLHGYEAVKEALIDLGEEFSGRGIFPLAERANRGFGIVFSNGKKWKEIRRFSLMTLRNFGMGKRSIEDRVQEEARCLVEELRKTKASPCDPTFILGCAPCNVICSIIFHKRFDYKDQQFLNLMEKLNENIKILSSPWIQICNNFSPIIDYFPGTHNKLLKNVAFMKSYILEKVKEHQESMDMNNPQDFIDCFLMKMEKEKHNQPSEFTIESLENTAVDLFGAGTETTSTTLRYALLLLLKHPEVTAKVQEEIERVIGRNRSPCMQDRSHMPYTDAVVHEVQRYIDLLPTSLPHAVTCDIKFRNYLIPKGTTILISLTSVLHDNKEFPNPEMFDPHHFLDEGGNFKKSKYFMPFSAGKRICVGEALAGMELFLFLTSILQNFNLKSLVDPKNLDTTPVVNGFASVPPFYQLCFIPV
T6 sequence (P08684 whole entry): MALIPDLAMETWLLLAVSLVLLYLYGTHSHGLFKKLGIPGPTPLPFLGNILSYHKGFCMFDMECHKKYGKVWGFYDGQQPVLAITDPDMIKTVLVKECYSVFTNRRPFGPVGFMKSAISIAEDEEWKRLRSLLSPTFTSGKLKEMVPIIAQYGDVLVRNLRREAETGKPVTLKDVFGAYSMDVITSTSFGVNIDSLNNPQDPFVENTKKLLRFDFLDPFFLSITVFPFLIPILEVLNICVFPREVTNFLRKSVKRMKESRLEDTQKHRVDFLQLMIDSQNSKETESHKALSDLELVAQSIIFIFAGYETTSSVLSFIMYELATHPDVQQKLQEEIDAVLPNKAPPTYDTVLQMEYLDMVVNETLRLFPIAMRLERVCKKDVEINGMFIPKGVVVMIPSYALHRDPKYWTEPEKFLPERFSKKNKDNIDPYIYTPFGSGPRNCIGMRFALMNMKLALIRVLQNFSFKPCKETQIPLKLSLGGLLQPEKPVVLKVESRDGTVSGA
T8 sequence (P10635 whole entry): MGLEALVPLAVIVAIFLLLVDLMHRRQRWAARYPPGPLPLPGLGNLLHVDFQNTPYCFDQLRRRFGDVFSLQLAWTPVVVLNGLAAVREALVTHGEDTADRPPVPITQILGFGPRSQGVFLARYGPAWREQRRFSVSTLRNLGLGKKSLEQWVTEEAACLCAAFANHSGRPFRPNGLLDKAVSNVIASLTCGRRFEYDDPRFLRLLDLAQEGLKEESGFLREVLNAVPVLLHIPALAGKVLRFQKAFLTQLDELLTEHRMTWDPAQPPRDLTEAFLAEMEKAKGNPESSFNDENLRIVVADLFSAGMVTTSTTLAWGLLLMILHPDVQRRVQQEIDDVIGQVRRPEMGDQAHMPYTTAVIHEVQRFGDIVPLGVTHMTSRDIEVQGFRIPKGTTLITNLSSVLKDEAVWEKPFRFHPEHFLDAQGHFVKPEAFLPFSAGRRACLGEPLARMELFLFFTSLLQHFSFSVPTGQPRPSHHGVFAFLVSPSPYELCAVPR
Chain of CYP-2C19 (P33261 whole entry): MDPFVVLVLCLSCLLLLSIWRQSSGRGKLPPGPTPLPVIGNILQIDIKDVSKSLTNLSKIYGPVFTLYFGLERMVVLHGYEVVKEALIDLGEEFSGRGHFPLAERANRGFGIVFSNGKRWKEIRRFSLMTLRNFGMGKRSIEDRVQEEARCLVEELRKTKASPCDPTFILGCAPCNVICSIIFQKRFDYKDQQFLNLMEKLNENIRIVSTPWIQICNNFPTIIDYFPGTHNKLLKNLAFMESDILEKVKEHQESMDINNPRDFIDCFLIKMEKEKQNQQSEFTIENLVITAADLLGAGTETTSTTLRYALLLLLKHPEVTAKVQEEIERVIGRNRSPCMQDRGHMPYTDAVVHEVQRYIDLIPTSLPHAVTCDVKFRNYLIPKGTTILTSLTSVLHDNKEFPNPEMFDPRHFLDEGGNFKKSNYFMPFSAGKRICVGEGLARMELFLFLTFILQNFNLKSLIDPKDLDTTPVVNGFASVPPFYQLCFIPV
T5 sequence (Q12809 whole entry): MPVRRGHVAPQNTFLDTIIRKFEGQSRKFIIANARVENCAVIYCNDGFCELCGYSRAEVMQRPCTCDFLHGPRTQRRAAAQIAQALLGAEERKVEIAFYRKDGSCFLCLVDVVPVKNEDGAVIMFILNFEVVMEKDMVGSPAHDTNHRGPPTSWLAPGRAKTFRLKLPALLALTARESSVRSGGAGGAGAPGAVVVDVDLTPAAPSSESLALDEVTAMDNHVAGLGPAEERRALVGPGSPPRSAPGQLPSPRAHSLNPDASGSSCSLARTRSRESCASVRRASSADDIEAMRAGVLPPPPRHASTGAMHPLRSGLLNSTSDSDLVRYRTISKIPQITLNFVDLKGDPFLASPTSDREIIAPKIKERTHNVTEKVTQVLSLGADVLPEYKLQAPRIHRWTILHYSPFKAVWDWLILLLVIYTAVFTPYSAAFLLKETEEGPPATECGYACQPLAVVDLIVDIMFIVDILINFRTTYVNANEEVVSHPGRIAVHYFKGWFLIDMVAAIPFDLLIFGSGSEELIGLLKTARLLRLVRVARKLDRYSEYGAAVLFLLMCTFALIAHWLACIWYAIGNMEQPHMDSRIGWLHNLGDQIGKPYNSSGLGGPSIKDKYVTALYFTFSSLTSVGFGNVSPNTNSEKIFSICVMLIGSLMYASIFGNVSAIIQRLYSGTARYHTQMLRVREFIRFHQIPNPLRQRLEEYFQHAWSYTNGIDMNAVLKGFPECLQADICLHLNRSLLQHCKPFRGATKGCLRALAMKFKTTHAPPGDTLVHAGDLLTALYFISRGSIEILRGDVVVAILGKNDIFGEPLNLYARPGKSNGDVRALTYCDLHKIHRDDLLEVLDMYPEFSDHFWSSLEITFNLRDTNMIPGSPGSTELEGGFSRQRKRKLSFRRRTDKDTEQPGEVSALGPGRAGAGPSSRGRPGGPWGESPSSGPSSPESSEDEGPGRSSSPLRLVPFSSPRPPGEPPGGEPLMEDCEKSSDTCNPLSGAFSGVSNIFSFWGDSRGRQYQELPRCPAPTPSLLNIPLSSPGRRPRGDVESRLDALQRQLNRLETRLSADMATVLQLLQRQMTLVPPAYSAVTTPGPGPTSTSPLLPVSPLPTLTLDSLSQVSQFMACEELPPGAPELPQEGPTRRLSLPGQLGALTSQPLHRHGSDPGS
T3 sequence (Q96RP8 whole entry): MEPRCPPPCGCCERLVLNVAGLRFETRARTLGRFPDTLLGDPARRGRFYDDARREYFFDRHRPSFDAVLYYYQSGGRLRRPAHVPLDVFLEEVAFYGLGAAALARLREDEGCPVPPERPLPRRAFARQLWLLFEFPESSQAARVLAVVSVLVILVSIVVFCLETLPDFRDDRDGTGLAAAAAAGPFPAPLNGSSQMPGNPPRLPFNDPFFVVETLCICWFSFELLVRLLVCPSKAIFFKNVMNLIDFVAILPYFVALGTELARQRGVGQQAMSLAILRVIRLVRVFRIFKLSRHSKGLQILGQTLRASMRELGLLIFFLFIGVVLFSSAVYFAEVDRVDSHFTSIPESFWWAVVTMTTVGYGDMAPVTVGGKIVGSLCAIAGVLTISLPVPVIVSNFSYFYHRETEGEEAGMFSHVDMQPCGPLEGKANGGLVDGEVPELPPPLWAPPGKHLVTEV
T1 sequence (P63142 whole entry): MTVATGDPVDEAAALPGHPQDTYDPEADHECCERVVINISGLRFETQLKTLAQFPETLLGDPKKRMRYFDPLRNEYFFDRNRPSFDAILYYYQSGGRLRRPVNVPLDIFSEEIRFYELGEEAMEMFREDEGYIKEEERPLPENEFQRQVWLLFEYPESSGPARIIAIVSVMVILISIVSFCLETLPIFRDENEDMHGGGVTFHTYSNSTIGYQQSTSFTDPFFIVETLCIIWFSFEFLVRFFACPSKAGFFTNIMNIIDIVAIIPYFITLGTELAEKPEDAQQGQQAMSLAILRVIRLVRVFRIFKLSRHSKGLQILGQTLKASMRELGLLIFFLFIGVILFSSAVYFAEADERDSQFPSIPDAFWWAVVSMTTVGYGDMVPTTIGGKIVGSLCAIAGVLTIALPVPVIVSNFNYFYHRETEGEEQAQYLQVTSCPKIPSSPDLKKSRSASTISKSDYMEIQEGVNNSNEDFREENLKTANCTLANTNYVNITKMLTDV
T2 sequence (P22460 whole entry): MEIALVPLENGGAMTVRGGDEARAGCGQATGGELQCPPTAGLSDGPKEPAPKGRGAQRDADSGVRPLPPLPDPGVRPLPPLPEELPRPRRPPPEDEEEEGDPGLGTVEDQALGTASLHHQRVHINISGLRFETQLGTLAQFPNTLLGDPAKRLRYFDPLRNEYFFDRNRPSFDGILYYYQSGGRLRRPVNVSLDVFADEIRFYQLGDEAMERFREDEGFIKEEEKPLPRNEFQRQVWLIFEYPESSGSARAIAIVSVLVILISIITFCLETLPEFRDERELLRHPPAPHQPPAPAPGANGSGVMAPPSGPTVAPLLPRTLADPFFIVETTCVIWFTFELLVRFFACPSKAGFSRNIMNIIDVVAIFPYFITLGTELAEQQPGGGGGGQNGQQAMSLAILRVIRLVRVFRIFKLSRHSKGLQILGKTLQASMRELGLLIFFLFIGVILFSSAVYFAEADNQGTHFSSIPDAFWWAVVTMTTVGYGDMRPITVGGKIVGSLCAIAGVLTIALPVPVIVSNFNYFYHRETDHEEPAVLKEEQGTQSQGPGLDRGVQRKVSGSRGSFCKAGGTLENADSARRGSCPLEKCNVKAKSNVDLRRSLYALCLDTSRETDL

| Compound | IC50 (KCa3.1 channel; KCa3.1, Table 5) [nM] | IC50 (KV1.2) [µM] | IC50 (KV1.5) [µM] | IC50 (KV1.7) [µM] | IC50 (KV4.2) [µM] | IC50 (KV11.1 (hERG)) [µM] | CYP IC50/KCa3.1 IC50 (CYP-3A4) | CYP IC50/KCa3.1 IC50 (CYP-2C9) | CYP IC50/KCa3.1 IC50 (CYP-IA2) | CYP IC50/KCa3.1 IC50 (CYP-2D6) | CYP IC50/KCa3.1 IC50 (CYP-2C19) | half-life at 1 μM (in vitro) [min] | IC50 (CaV1.2 channel) [µM] | Microsomal Stability (human) % remaining @ 30 mins [1] [%] | drug/control (% remaining @ 30 mins) [1] | other results |
| --- | --- | --- | --- | --- | --- | --- | --- | --- | --- | --- | --- | --- | --- | --- | --- | --- |
| COC(=O)C1=C(C)NC(C)=C(C(=O)OC)C1c1ccc(F)c(C(F)(F)F)c1 [Compound 101] | 16.2 ± 0.2 | > 10 | > 10 | > 10 | > 10 | > 10 | 79.75 | 162.5 | 558 | 1226 | 1226 | 22 | 3.2 | 53 | 1.6 | IC50 (KCa3.1 channel; IC50 (nM), block of KCa3.1, patch clamp (Table 2)): 16 ± 0.2 nM; IC50 (CYP-3A4; microsomes): 1.3 µM; IC50 (CYP-2C9; microsomes): 2.6 µM; IC50 (CYP-IA2; microsomes): 9.1 µM; IC50 (CYP-2D6; microsomes): > 20 µM; IC50 (CYP-2C19; microsomes): > 20 µM |
| COC(=O)C1=CNC=C(C(=O)OC)C1c1ccc(F)c(C(F)(F)F)c1 [Compound 103, Dimethyl 4-(4-fluoro-3-(trifluoromethyl)phenyl)-1,4-dihydropyridine-3,5-dicarboxylate] | 6.1 ± 0.9 | > 10 | > 10 | > 10 | > 10 | > 10 | 3279 | 836 | 3279 | 3279 | 3279 | 16 | 13.5 | 25 | 3.7 | IC50 (KCa3.1 channel; KCa3.1 IC50 (nM), Table 3): 6.1 nM |
